The record followed here is patent publication US6841167B1, “β-carboline pharmaceutical compositions” (Lilly Icos LLC., priority 1999, dated 2005).

The nature of data set [1]: physical stability evaluation of solutions (microscope, drug crystals). Particulars: PEG 400, room temperature and 4° C. The data set is classed as physicochemical. As for the experimental part: The solutions then were allowed to cool to room temperature (RT). A portion of each solution was mixed with water (8 mg water per 100 mg solution) to mimic the water migration and retention processes occurring in a soft capsule. The solutions (with and without water) were stored at RT (room temperature) and at 4° C. for physical stability evaluation.

Data set [2] in a line: bioavailability of Compound A. The conditions noted are these: in vivo.

Take `CN1CC(=O)N2[C@H](c3ccc4c(c3)OCO4)c3[nH]c4ccccc4c3C[C@@H]2C1=O` (relative stereo) [Compound A, (6R-trans)-6-(1,3-benzodioxol-5-yl)-2,3,6,7,12,12a-hexahydro-2-methylpyrazino-[1′, 2′:1, ]pyrido[3,4-b]indole-1,4-dione]: in data set [1], the “drug concentration at which PEG 400 solution formulation is physically stable with respect to drug crystallization” value was no more than 2.8%. The bioavailability entry in data set [2] was “low and inconsistent bioavailability”.
